The nature of data set [1]: Pharmacokinetic study, oral dosing, plasma concentration by LC-MS/MS. The class given is in vivo. To be noted: female swiss mice, fasted overnight, oral 3 mg/kg in PEG 400, plasma. The method, then:
For pharmacokinetic study female swiss mice were used. The swiss mice weighing 25-30 g, fasted overnight, were orally dosed at 3 mg/kg body weight of compound in PEG 400. Blood samples (40 μl) were collected from each mouse by retro-orbital bleeding at 0, 0.16, 0.5, 1, 2, 4, 6 and 8 h after dosing into the tubes containing heparin as an anticoagulant. The samples were stored in ice and within 1 h after collection samples were centrifuged at 10000 RPM at 4° C. Plasma was collected and stored at −80° C. until analyis. The concentration of compounds in plasma were determined by liquid chromatography-tandem mass spectrometry (LC-MS/MS).
The protein precipitation method was used to extract the compounds. Acetonitrile was added to plasma, vortexed and centrifuged at 10000 RPM at 4° C. The supenatent was collected and injected onto the column. A CTC HTC PAL auto sampler (LEAP Technologies) linked to a Shimadzu SCL-10A VP HTC controller with LC-10AD pumps (Shimadzu), coupled with a Sciex API 3000 triple quadrupole mass spectrometer were used for the LC-MS/MS analysis. Some compounds as per the present invention are represented in the table below, were tested and their PK values are reported in Table 2.

The next data set addresses T1, PI3K alpha (Homo sapiens, UniProt P42336).
T1 construct: purchased Millipore Upstate
The data set is described as follows: P110 Alpha TR-FRET Assay (PI3K alpha kinase assay, HTRF Transcreener ADP Assay). The format is biochemical. To be noted: PI3K (WT). Put shortly:
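Enzyme (50 ng) and compound were preincubated 20 min in HEPES pH 7.5 buffer containing MgCl2, DTT and vanadate before 10 μM ATP plus 5 μM PIP2 substrate was added for 20 min. ADP produced was quantified by TR-FRET (ADP-d2, anti-ADP cryptate, 1 h).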
(In general: In TR-FRET formats the signal depends on donor and acceptor labels being close together.)

The subject of the next data set is human tumor xenografts. To be noted: mouse, in vivo; cited from earlier work.

Read-outs that look alike come from different tables or passages of the source.

Usually Cmax stands for the highest concentration seen after dosing. A word on the Tmax: it is the time from dosing to the highest level. Broadly, the IC50 is the concentration at which inhibition is half-maximal. Low values mean greater potency in that assay, high ones weaker potency in that assay.

T1 sequence (P42336 whole entry): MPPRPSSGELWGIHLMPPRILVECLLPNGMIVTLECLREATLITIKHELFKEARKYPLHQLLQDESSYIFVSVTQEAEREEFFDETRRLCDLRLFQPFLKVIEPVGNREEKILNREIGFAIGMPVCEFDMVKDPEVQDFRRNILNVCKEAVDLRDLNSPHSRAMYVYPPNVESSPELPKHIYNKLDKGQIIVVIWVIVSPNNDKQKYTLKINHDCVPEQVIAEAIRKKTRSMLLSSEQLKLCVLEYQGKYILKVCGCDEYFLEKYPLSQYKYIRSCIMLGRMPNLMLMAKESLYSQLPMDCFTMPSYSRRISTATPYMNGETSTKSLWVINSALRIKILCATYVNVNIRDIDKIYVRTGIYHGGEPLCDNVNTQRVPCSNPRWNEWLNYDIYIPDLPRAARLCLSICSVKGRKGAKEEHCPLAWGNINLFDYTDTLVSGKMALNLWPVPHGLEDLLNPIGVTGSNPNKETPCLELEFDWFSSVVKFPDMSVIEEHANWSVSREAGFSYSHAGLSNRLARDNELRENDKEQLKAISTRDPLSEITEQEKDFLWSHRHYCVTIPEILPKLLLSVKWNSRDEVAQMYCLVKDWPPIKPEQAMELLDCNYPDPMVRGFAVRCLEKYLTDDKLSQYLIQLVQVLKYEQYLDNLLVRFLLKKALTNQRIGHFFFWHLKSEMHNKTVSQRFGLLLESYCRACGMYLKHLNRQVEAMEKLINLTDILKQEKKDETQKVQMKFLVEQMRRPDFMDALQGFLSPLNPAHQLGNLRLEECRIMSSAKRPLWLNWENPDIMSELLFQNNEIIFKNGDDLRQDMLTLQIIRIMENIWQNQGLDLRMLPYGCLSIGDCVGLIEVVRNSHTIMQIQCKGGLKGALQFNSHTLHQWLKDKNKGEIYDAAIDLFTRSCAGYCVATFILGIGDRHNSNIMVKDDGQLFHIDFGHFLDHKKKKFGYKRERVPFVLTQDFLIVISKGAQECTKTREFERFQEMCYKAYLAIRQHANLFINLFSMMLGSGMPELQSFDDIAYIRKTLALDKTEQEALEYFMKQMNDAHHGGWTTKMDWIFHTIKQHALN
T1 sequence (P27986 whole entry partner): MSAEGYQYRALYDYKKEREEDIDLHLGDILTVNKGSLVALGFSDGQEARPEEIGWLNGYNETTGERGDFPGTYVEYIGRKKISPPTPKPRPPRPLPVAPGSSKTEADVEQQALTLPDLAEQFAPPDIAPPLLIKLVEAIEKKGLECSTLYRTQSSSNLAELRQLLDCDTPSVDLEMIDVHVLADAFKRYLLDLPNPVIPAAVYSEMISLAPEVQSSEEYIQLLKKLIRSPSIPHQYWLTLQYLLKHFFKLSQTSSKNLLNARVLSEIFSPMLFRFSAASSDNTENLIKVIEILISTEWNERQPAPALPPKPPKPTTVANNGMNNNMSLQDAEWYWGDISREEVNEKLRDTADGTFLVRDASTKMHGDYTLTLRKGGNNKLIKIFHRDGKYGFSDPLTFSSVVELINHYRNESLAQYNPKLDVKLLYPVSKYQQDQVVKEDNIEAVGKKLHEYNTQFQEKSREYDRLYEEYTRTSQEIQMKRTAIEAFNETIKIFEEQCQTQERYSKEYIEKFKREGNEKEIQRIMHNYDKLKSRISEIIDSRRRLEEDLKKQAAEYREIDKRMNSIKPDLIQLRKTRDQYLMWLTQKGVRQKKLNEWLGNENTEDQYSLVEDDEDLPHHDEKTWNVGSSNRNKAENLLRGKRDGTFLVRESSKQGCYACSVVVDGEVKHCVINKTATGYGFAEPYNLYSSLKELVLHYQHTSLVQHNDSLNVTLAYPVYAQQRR

For `CNC(=O)c1ccc(Oc2nc(-c3cccc4[nH]ncc34)nc(N3CCOCC3)n2)cc1` [Compound 1113, 4-14-{[4-1-(1H-indazol-4-yl)-6-5-(morpholin-4-yl)-1,3,5-triazin-2-yl]oxy}-N-methylbenzamide], in data set [1] (mouse), the Cmax is 1240 nM. Also, the AUC in data set [1] (mouse, read-out: AUC) came out at 5.25 µM·h. The half-life in data set [1] (mouse, read-out: Elimination t1/2 (converted)) was 4.86 h. In data set [1] (mouse, read-out: Tmax), the Tmax worked out at 1 h.

Turning to `CN(C)C(=O)N1CCC(Oc2nc(-c3cccc4[nH]ncc34)nc(N3CCOCC3)n2)CC1` [Compound 1126, 4-14-{[4-1-(1H-indazol-4-yl)-6-5-(morpholin-4-yl)-1,3,5-triazin-2-yl]oxy}-N,N-dimethylpiperidine-1-carboxamide], the IC50 at PI3K alpha is < 5 µM. Also, in data set [1], the AUC is listed as 1618 nM-hr, the Cmax is 535 nM, the “Elimination t1/2” value came to 3.15 h and the time to peak (Tmax) stood at 0.83 h.

For `CN(C)C(=O)[C@H]1CC[C@H](Oc2nc(-c3cccc4[nH]ncc34)nc(N3CCOCC3)n2)CC1` [Compound 1144, (1r,4r)-4-21-{[4-1-(1H-indazol-4-yl)-6-5-(morpholin-4-yl)-1,3,5-triazin-2-yl]oxy}-N,N-dimethylcyclohexane-1-carboxamide], the IC50 at PI3K alpha was < 5 µM. Also, in data set [1], the AUC stood at 5849 nM-hr, the concentration peaked (Cmax) at 1660 nM, the “Elimination t1/2” value was determined as 4.34 h and the Tmax was 1.33 h.

Turning to `CNC(=O)N1CCN(c2nc(-c3cccc4[nH]ncc34)nc(N3CCOCC3)n2)CC1` [Compound 1218, 4-7-[4-1-(1H-indazol-4-yl)-6-5-(morpholin-4-yl)-1,3,5-triazin-2-yl]-N-methylpiperazine-1-carboxamide], the half-inhibitory concentration (IC50) against PI3K alpha was < 5 µM.

Consider `c1ccc(Nc2nc(-c3cccc4[nH]ncc34)nc(N3CCOCC3)n2)cc1` [Compound 1219, 4-(1H-indazol-4-yl)-6-morpholino-N-phenyl-1,3,5-triazin-2-amine], for which, at PI3K alpha, the IC50 was < 5 µM.

As for `OC1CCN(c2nc(-c3cccc4[nH]ncc34)nc(N3CCOCC3)n2)CC1` [Compound 1220, 1-8-[4-1-(1H-indazol-4-yl)-6-5-(morpholin-4-yl)-1,3,5-triazin-2-yl]piperidin-4-ol], the half-inhibitory concentration (IC50) on PI3K alpha is < 5 µM.

As for `O=C1CCN(c2nc(-c3cccc4[nH]ncc34)nc(N3CCOCC3)n2)CC1` [Compound 1221, 1-8-[4-1-(1H-indazol-4-yl)-6-5-(morpholin-4-yl)-1,3,5-triazin-2-yl]piperidin-4-one], the 50% inhibitory concentration (IC50) on PI3K alpha was < 5 µM.

Take `NC1CCN(c2nc(-c3cccc4[nH]ncc34)nc(N3CCOCC3)n2)CC1` [Compound 1222, 1-8-[4-1-(1H-indazol-4-yl)-6-5-(morpholin-4-yl)-1,3,5-triazin-2-yl]piperidin-4-amine]: the half-inhibitory concentration (IC50) against PI3K alpha was < 5 µM.

Consider `CN(C)C(=O)CCNc1nc(-c2cccc3[nH]ncc23)nc(N2CCOCC2)n1` [Compound 1223, 3-((4-(1H-indazol-4-yl)-6-morpholino-1,3,5-triazin-2-yl)amino)-N,N-dimethylpropanamide], for which, on PI3K alpha, the half-inhibitory concentration (IC50) is < 5 µM.

Take `c1cc(-c2nc(-c3cccc4[nH]ncc34)nc(N3CCOCC3)n2)c2cn[nH]c2c1` [Compound 1224, 4-12-[4-3-(1H-indazol-4-yl)-6-5-(morpholin-4-yl)-1,3,5-triazin-2-yl]-1H-indazole]: the half-maximal inhibitory concentration (IC50) against PI3K alpha is < 5 µM.

Turning to `c1cc(-c2nc(NC3CCOCC3)nc(N3CCOCC3)n2)c2cn[nH]c2c1` [Compound 1225, 4-(1H-indazol-4-yl)-6-morpholino-N-(tetrahydro-2H-pyran-4-yl)-1,3,5-triazin-2-amine], on PI3K alpha, the IC50 was < 5 µM.

Take `Cc1nc(-c2cccc3[nH]ncc23)nc(N2CCOCC2)n1` [Compound 1226, 4-7-[4-3-methyl-6-5-(morpholin-4-yl)-1,3,5-triazin-2-yl]-1H-indazole]: the IC50 against PI3K alpha was < 5 µM.

As to `O=C(O)CCNc1nc(-c2cccc3[nH]ncc23)nc(N2CCOCC2)n1` [Compound 1227, 3-((4-(1H-indazol-4-yl)-6-morpholino-1,3,5-triazin-2-yl)amino)propanoic acid], the half-maximal inhibitory concentration (IC50) against PI3K alpha was < 5 µM.

With `CN1CCN(c2nc(-c3cccc4[nH]ncc34)nc(N3CCOCC3)n2)CC1` [Compound 1228, 4-18-[4-3-(4-15-methylpiperazin-1-yl)-6-5-(morpholin-4-yl)-1,3,5-triazin-2-yl]-1H-indazole], at PI3K alpha, the IC50 is < 5 µM.

Consider `c1cc(-c2nc(N3CCNCC3)nc(N3CCOCC3)n2)c2cn[nH]c2c1` [Compound 1229, 4-17-[4-5-(morpholin-4-yl)-6-3-(piperazin-1-yl)-1,3,5-triazin-2-yl]-1H-indazole], for which the IC50 on PI3K alpha is < 5 µM.

For the compound `O=C1CN(c2nc(-c3cccc4[nH]ncc34)nc(N3CCOCC3)n2)CCN1` [Compound 1230, 4-7-[4-1-(1H-indazol-4-yl)-6-5-(morpholin-4-yl)-1,3,5-triazin-2-yl]piperazin-2-one], the half-inhibitory concentration (IC50) against PI3K alpha is < 5 µM.

With `Nc1nc(-c2cccc3[nH]ncc23)nc(N2CCOCC2)n1` [Compound 1231, 4-2-(1H-indazol-4-yl)-6-0-(morpholin-4-yl)-1,3,5-triazin-2-amine], the concentration for half-maximal inhibition (IC50) against PI3K alpha was > 5 µM.

In the case of `CC(C)(CO)Nc1nc(-c2cccc3[nH]ncc23)nc(N2CCOCC2)n1` [Compound 1232, 2-((4-(1H-indazol-4-yl)-6-morpholino-1,3,5-triazin-2-yl)amino)-2-methylpropan-1-ol], the IC50 on PI3K alpha was < 5 µM.

Turning to `c1cc(-c2nc(N3CCOCC3)nc(N3CCOCC3)n2)c2cn[nH]c2c1` [Compound 1233, 4-8-[4-3,6-5-bis(morpholin-4-yl)-1,3,5-triazin-2-yl]-1H-indazole], at PI3K alpha, the IC50 is < 5 µM.

As for `CC(Nc1nc(-c2cccc3[nH]ncc23)nc(N2CCOCC2)n1)C(N)=O` (centres unmarked) [Compound 1234, 2-((4-(1H-indazol-4-yl)-6-morpholino-1,3,5-triazin-2-yl)amino)propanamide], the half-inhibitory concentration (IC50) on PI3K alpha was < 5 µM.

On to `CC(C)(Nc1nc(-c2cccc3[nH]ncc23)nc(N2CCOCC2)n1)C(=O)O` [Compound 1235, 2-((4-(1H-indazol-4-yl)-6-morpholino-1,3,5-triazin-2-yl)amino)-2-methylpropanoic acid], for which, on PI3K alpha, the IC50 was < 5 µM.

With `O=C(O)CNc1nc(-c2cccc3[nH]ncc23)nc(N2CCOCC2)n1` [Compound 1236, 2-((4-(1H-indazol-4-yl)-6-morpholino-1,3,5-triazin-2-yl)amino)acetic acid], the IC50 against PI3K alpha is < 5 µM.

For `O=c1cc(N2CCOCC2)oc2c(-c3ccccc3)cccc12` [LY294002], the tolerability entry in the data set on human tumor xenografts was “well-tolerated”.

In the case of “N-[(4E)-1-8-[4-1-(1-21-{4-24-[(4E)-4-37-(hydroxyimino)azepan-1-yl]-6-26-(morpholin-4-yl)-1,3,5-triazin-2-yl}-1H-indazol-4-yl)-6-5-(morpholin-4-yl)-1,3,5-triazin-2-yl]azepan-4-ylidene]hydroxylamine [Compound 1123]”, the concentration for half-maximal inhibition (IC50) against PI3K alpha is < 5 µM.

These data come from patent US9481670B2, “Triazine compounds” (Sphaera Pharma PTE. Ltd., priority 2011, dated 2016).
